Test results taken from ChEMBL document CHEMBL1152671, “Structure-activity relationship studies of manzamine A: amidation of positions 6 and 8 of the beta-carboline moiety” (Bioorg Med Chem, 2009).
In brackets after ≈: the same amount, converted by molar mass. Activity calls are given as the source filed them. No cut-off for these calls is given here.

Key:
Pseudomonas aeruginosa = assay: Antibacterial activity against Pseudomonas aeruginosa by modified NCCLS method; format: functional, organism-based
Plasmodium falciparum [1] = assay: Antimalarial activity against chloroquine-resistant Plasmodium falciparum W2 infected in African green monkey (Cercopithecus aethiops) (Cercopithecus aethiops) Vero cells assessed as parasite LDH activity after 72 hrs; format: functional, organism-based
Vero = assay: Cytotoxicity against african green monkey Vero cells up to 470 nM by neutral red assay; format: cell-based; conditions: chlorocebus sabaeus
Cryptococcus neoformans [2] = assay: Antifungal activity against Cryptococcus neoformans by modified NCCLS method; format: functional, organism-based
Candida albicans [3] = assay: Antifungal activity against Candida albicans by modified NCCLS method; format: functional, organism-based
Candida albicans [4] = tested on: Candida albicans
Description: Antifungal activity against Candida albicans after 24 hrs by alamar blue assay

Aspergillus fumigatus [5] = tested on: Aspergillus fumigatus
Description: Antifungal activity against Aspergillus fumigatus after 24 hrs by alamar blue assay

[6] = tested on: Mycobacterium intracellulare; assay: Antibacterial activity against Mycobacterium intracellular after 24 hrs by alamar blue assay; format: functional
Plasmodium falciparum [7] = assay: Antimalarial activity against chloroquine-sensitive Plasmodium falciparum D6 infected in African green monkey (Cercopithecus aethiops) Vero cells assessed as parasite LDH activity after 72 hrs; format: functional, organism-based
Aspergillus fumigatus [8] = assay: Antifungal activity against Aspergillus fumigatus by modified NCCLS method; format: functional, organism-based
Escherichia coli = assay: Antibacterial activity against Escherichia coli by modified NCCLS method; format: functional, organism-based
[9] = tested on: Mycobacterium intracellulare; assay: Antibacterial activity against Mycobacterium intracellular by alamar blue assay; format: functional, organism-based
Cryptococcus neoformans [10] = assay: Antifungal activity against Cryptococcus neoformans after 24 hrs by alamar blue assay; format: functional
[11] = Cryptococcus neoformans, read-out: IC50
[12] = Candida albicans, read-out: IC50

SMILES | Activity (Pseudomonas aeruginosa) | IC50 (Plasmodium falciparum [1]) [nM] | Activity (Vero) | IC50 (Cryptococcus neoformans [2]) | IC50 (Candida albicans [3]) | MIC (Candida albicans [4]) | MIC (Aspergillus fumigatus [5]) | MIC [6] [µM] | IC50 (Plasmodium falciparum [7]) [nM] | IC50 (Aspergillus fumigatus [8]) | Activity (Escherichia coli) | IC50 [9] [nM] | MIC (Cryptococcus neoformans [10]) | IC50 (Cryptococcus neoformans [2]; [11]) [nM] | IC50 (Candida albicans [3]; [12]) [nM] | IC50 (Aspergillus fumigatus [8]; Aspergillus fumigatus, read-out: IC50) [nM]
CC(C)(C)CC(=O)Nc1ccc2[nH]c3c(C4=C[C@@]5(O)CC/C=C\CCCCN6CC[C@@H]4[C@]4(C[C@@H]7/C=C\CCCCN7[C@H]45)C6)nccc3c2c1 | inactive | 302 | Non-toxic | Not Active | Not Active | inactive | inactive | 1.89 (≈ 1.25 µg/mL) | 211 | Not Active | inactive | 1360 | inactive | – | – | –
CC(C)(C)CC(=O)Nc1cccc2c1[nH]c1c(C3=C[C@@]4(O)CC/C=C\CCCCN5CC[C@@H]3[C@]3(C[C@@H]6/C=C\CCCCN6[C@H]34)C5)nccc12 | inactive | 127 | Non-toxic | – | Not Active | inactive | inactive | 3.78 (≈ 2.5 µg/mL) | 139 | Not Active | inactive | 1510 | inactive | 14400 | – | –
Oc1cccc2c1[nH]c1c(C3=C[C@@]4(O)CC/C=C\CCCCN5CC[C@@H]3[C@]3(C[C@@H]6/C=C\CCCCN6[C@H]34)C5)nccc12 | – | 14 | – | – | – | inactive | – | – | 11 | – | – | 177 | – | 3550 | 6200 | –
CC(=O)Nc1ccc2[nH]c3c(C4=C[C@@]5(O)CC/C=C\CCCCN6CC[C@@H]4[C@]4(C[C@@H]7/C=C\CCCCN7[C@H]45)C6)nccc3c2c1 [6-ACETAMIDOMANZAMINE A] | inactive | 1980 | Non-toxic | Not Active | Not Active | inactive | inactive | 16.5 (≈ 10 µg/mL) | 1290 | Not Active | inactive | 9910 | inactive | – | – | –
CC(C)C(=O)Nc1ccc2[nH]c3c(C4=C[C@@]5(O)CC/C=C\CCCCN6CC[C@@H]4[C@]4(C[C@@H]7/C=C\CCCCN7[C@H]45)C6)nccc3c2c1 [6-ISOBUTAMIDOMANZAMINE A] | inactive | 1550 | Non-toxic | Not Active | Not Active | inactive | inactive | 3.95 (≈ 2.5 µg/mL) | 1100 | Not Active | inactive | 3160 | inactive | – | – | –
CCCC(=O)Nc1ccc2[nH]c3c(C4=C[C@@]5(O)CC/C=C\CCCCN6CC[C@@H]4[C@]4(C[C@@H]7/C=C\CCCCN7[C@H]45)C6)nccc3c2c1 [6-N-BUTAMIDOMANZAMINE A] | inactive | 1890 | Non-toxic | Not Active | Not Active | inactive | inactive | 7.89 (≈ 5 µg/mL) | 1150 | Not Active | inactive | 4740 | inactive | – | – | –
CCCCCC(=O)Nc1ccc2[nH]c3c(C4=C[C@@]5(O)CC/C=C\CCCCN6CC[C@@H]4[C@]4(C[C@@H]7/C=C\CCCCN7[C@H]45)C6)nccc3c2c1 [6-N-HEXAMIDOMANZAMINE A] | inactive | 786 | Non-toxic | Not Active | Not Active | inactive | inactive | 30.2 (≈ 20 µg/mL) | 680 | Not Active | inactive | 15100 | inactive | – | – | –
CCCCCCC(=O)Nc1ccc2[nH]c3c(C4=C[C@@]5(O)CC/C=C\CCCCN6CC[C@@H]4[C@]4(C[C@@H]7/C=C\CCCCN7[C@H]45)C6)nccc3c2c1 [6-N-OCTAMIDOMANZAMINE A] | inactive | 754 | Non-toxic | Not Active | Not Active | inactive | inactive | 29 (≈ 19.6 µg/mL) | 696 | Not Active | inactive | 17400 | inactive | – | – | –
CCCCC(=O)Nc1ccc2[nH]c3c(C4=C[C@@]5(O)CC/C=C\CCCCN6CC[C@@H]4[C@]4(C[C@@H]7/C=C\CCCCN7[C@H]45)C6)nccc3c2c1 [6-N-PENTAMIDOMANZAMINE A] | inactive | 1480 | Non-toxic | Not Active | Not Active | inactive | inactive | 3.86 (≈ 2.5 µg/mL) | 1240 | Not Active | inactive | 2320 | inactive | – | – | –
CCC(=O)Nc1ccc2[nH]c3c(C4=C[C@@]5(O)CC/C=C\CCCCN6CC[C@@H]4[C@]4(C[C@@H]7/C=C\CCCCN7[C@H]45)C6)nccc3c2c1 [6-N-PROPAMIDOMANZAMINE A] | inactive | 1940 | Non-toxic | Not Active | Not Active | inactive | inactive | 8.07 (≈ 5 µg/mL) | 1160 | Not Active | inactive | 5650 | inactive | – | – | –
CC(C)(C)C(=O)Nc1ccc2[nH]c3c(C4=C[C@@]5(O)CC/C=C\CCCCN6CC[C@@H]4[C@]4(C[C@@H]7/C=C\CCCCN7[C@H]45)C6)nccc3c2c1 [6-PIVALAMIDOANZAMINE A] | inactive | 417 | Non-toxic | Not Active | Not Active | inactive | inactive | 3.86 (≈ 2.5 µg/mL) | 231 | Not Active | inactive | 1540 | inactive | – | – | –
CC(=O)Nc1cccc2c1[nH]c1c(C3=C[C@@]4(O)CC/C=C\CCCCN5CC[C@@H]3[C@]3(C[C@@H]6/C=C\CCCCN6[C@H]34)C5)nccc12 [8-ACETAMIDOMANZAMINE A] | inactive | 231 | Non-toxic | – | Not Active | inactive | inactive | 2.06 (≈ 1.25 µg/mL) | 182 | Not Active | inactive | 1650 | inactive | 33400 | – | –
O=C(Nc1cccc2c1[nH]c1c(C3=C[C@@]4(O)CC/C=C\CCCCN5CC[C@@H]3[C@]3(C[C@@H]6/C=C\CCCCN6[C@H]34)C5)nccc12)C1CCCCC1 [8-CYCLOHEXAMIDOMANZAMINE A] | inactive | 995 | Non-toxic | Not Active | Not Active | inactive | inactive | 14.8 (≈ 10 µg/mL) | 950 | Not Active | inactive | 11100 | inactive | – | – | –
CC(C)C(=O)Nc1cccc2c1[nH]c1c(C3=C[C@@]4(O)CC/C=C\CCCCN5CC[C@@H]3[C@]3(C[C@@H]6/C=C\CCCCN6[C@H]34)C5)nccc12 [8-ISOBUTAMIDOMANZAMINE A] | inactive | 205 | Non-toxic | – | Not Active | inactive | inactive | 1.97 (≈ 1.25 µg/mL) | 158 | Not Active | inactive | 1030 | inactive | 3160 | – | –
CCCC(=O)Nc1cccc2c1[nH]c1c(C3=C[C@@]4(O)CC/C=C\CCCCN5CC[C@@H]3[C@]3(C[C@@H]6/C=C\CCCCN6[C@H]34)C5)nccc12 [8-N-BUTAMIDOMANZAMINE A] | inactive | 121 | Non-toxic | – | Not Active | inactive | inactive | 1.97 (≈ 1.25 µg/mL) | 35 | Not Active | inactive | 868 | inactive | 23700 | – | –
CCC(=O)Nc1cccc2c1[nH]c1c(C3=C[C@@]4(O)CC/C=C\CCCCN5CC[C@@H]3[C@]3(C[C@@H]6/C=C\CCCCN6[C@H]34)C5)nccc12 [8-N-PROPAMIDOMANZAMINE A] | inactive | 87 | Non-toxic | – | – | inactive | inactive | 2.02 (≈ 1.25 µg/mL) | 123 | – | inactive | 1520 | – | – | > 32300 | > 32300
C[C@@H]1CC[C@H]2[C@@H](C)C(=O)O[C@@H]3O[C@@]4(C)CC[C@@H]1[C@]32OO4 [ARTEMISININ] | – | 28 | – | – | – | – | – | – | 46 | – | – | – | – | – | – | –
O=C(O)c1cn(C2CC2)c2cc(N3CCNCC3)c(F)cc2c1=O [CIPROFLOXACIN] | – | – | – | – | – | – | – | – | – | – | – | 1060 | – | – | – | –
